Values after ≈ are worked out from the molar mass of the structure shown. Where two headings read alike, the source gives them in different places.
Key:
[1] = system: non-CF clinical isolates of P. aeruginosa; assay: MIC vs non-CF clinical isolates of P. aeruginosa; format: cell-based; settings: Pseudomonas aeruginosa, MIC key class
Procedure: Bacterial isolates were cultivated from −70° C. frozen stocks by two consecutive overnight passages at 35° C. in ambient air on 5% blood agar (Remel, Lenexa, Kans.). Clinical isolates tested were from a collection composed of isolates collected during clinical trials and recent clinical isolates obtained from various geographically diverse hospitals in the US. Quality control and primary panel strains were from the American Type Culture Collection (ATCC; Rockville, Md.), with the exception of P. aeruginosa PAO200, a strain with a deletion of the mexABoprM genes that was received from Dr. H. Schweizer. […] Strain Z61 (ATCC 35151) is also hypersusceptible to antibacterials. It is thought that the hypersusceptibility of this strain is the result of increased permeability of its outer membrane (Angus B L et al, Antimicrobial Agents and Chemotherapy 1982 21,299-309: Outer membrane permeability in Pseudomonas aeruginosa: Comparison of a wild-type with an antibacterial-supersusceptible mutant).
(§1) Minimum Inhibitory Concentrations (MICs) were determined by the broth microdilution method in accordance with the National Committee for Clinical Laboratory Standards (NCCLS) guidelines. In brief, organism suspensions were are adjusted to a 0.5 McFarland standard to yield a final inoculum between 3×10^5 and 7×10^5 colony-forming units (CFU)/mL. Drug dilutions and inocula were made in sterile, cation adjusted Mueller-Hinton Broth (Remel). An inoculum volume of 100 μl was added to wells containing 100 μl of broth with 2-fold serial dilutions of drug. All inoculated microdilution trays were incubated in ambient air at 35° C. for 18-24 hours. Following incubation, the lowest concentration of the drug that prevented visible growth was recorded as the MIC. Performance of the assay was monitored by the use of laboratory quality-control strains against tobramycin, that has a defined MIC spectrum, in accordance with NCCLS guidelines.

[2] = system: Proteus mirabilis; assay: MIC vs enteric organisms: Proteus mirabilis; format: cell-based; settings: P. mir., MIC key class
Procedure: (§2) Bacterial isolates were cultivated from −70° C. frozen stocks by two consecutive overnight passages at 35° C. in ambient air on 5% blood agar (Remel, Lenexa, Kans.). Clinical isolates tested were from a collection composed of isolates collected during clinical trials and recent clinical isolates obtained from various geographically diverse hospitals in the US. Quality control and primary panel strains were from the American Type Culture Collection (ATCC; Rockville, Md.), with the exception of P. aeruginosa PAO200, a strain with a deletion of the mexABoprM genes that was received from Dr. H. Schweizer.
as §1, with “MIC.” for “MIC. Performance of the assay was monitored by the use of laboratory quality-control strains against tobramycin, that has a defined MIC spectrum, in accordance with NCCLS guidelines.”

[3] = system: Serratia marcescens; assay: MIC vs enteric organisms: Serratia marcescens; format: cell-based; settings: S. marc., MIC key class
Procedure: as §2
as §1, with “MIC.” for “MIC. Performance of the assay was monitored by the use of laboratory quality-control strains against tobramycin, that has a defined MIC spectrum, in accordance with NCCLS guidelines.”

[4] = system: Enterobacter aerogenes; assay: MIC vs enteric organisms: Enterobacter aerogenes; format: cell-based; settings: Klebsiella aerogenes; E. aer.; MIC key class
Procedure: as §2
as §1, with “MIC.” for “MIC. Performance of the assay was monitored by the use of laboratory quality-control strains against tobramycin, that has a defined MIC spectrum, in accordance with NCCLS guidelines.”

[5] = system: Klebsiella oxytoca; assay: MIC vs enteric organisms: Klebsiella oxytoca; format: cell-based; settings: K. oxy., MIC key class
Procedure: as §2
as §1, with “MIC.” for “MIC. Performance of the assay was monitored by the use of laboratory quality-control strains against tobramycin, that has a defined MIC spectrum, in accordance with NCCLS guidelines.”

[6] = system: Acinetobacter calcoaceticus; assay: MIC vs non-fermenting organisms: Acinetobacter calcoaceticus; format: cell-based; settings: Acinet. calc., MIC key class
Procedure: as §2
as §1, with “MIC.” for “MIC. Performance of the assay was monitored by the use of laboratory quality-control strains against tobramycin, that has a defined MIC spectrum, in accordance with NCCLS guidelines.”

[7] = system: Klebsiella pneumoniae; assay: MIC vs enteric organisms: Klebsiella pneumoniae; format: cell-based; settings: K. pneu., MIC key class
Procedure: as §2
as §1, with “MIC.” for “MIC. Performance of the assay was monitored by the use of laboratory quality-control strains against tobramycin, that has a defined MIC spectrum, in accordance with NCCLS guidelines.”

[8] = system: Pseudomonas aeruginosa cystic fibrosis isolate 3317; assay: MIC vs cystic fibrosis isolate of P. aeruginosa 3317 (resistant to aztreonam); format: cell-based; settings: strain 3317, Aztr. R, LpxC inhibitors, MIC key class
Procedure: as §2
as §1, with “MIC.” for “MIC. Performance of the assay was monitored by the use of laboratory quality-control strains against tobramycin, that has a defined MIC spectrum, in accordance with NCCLS guidelines.”

[9] = system: Enterobacter cloacae; assay: MIC vs enteric organisms: Enterobacter cloacae; format: cell-based; settings: E. clo., MIC key class
Procedure: as §2
as §1, with “MIC.” for “MIC. Performance of the assay was monitored by the use of laboratory quality-control strains against tobramycin, that has a defined MIC spectrum, in accordance with NCCLS guidelines.”

[10] = system: Alcaligenes xylosoxidans; assay: MIC vs non-fermenting organisms: Alcaligenes xylosoxidans; format: cell-based; settings: Achromobacter xylosoxidans; Alcal. xyl; MIC key class
Procedure: as §2
as §1, with “MIC.” for “MIC. Performance of the assay was monitored by the use of laboratory quality-control strains against tobramycin, that has a defined MIC spectrum, in accordance with NCCLS guidelines.”

[11] = system: Pseudomonas aeruginosa cystic fibrosis isolate 3236; assay: MIC vs cystic fibrosis isolate of P. aeruginosa 3236 (sensitive to most antibacterials); format: cell-based; settings: strain 3236, Sensitive, LpxC inhibitors, MIC key class
Procedure: as §2
as §1, with “MIC.” for “MIC. Performance of the assay was monitored by the use of laboratory quality-control strains against tobramycin, that has a defined MIC spectrum, in accordance with NCCLS guidelines.”

[12] = system: Pseudomonas aeruginosa cystic fibrosis isolate 2196; assay: MIC vs cystic fibrosis isolate of P. aeruginosa 2196 (resistant to ciprofloxacin); format: cell-based; settings: strain 2196, Cipro R, LpxC inhibitors, MIC key class
Procedure: as §2
as §1, with “MIC.” for “MIC. Performance of the assay was monitored by the use of laboratory quality-control strains against tobramycin, that has a defined MIC spectrum, in accordance with NCCLS guidelines.”

[13] = system: Burkholderia cepacia; assay: MIC vs non-fermenting organisms: Burkholderia cepacia; format: cell-based; settings: Burkholderia cepacia, B. cepacia; MIC key class; read-out: MIC
Procedure: as §2
as §1, with “MIC.” for “MIC. Performance of the assay was monitored by the use of laboratory quality-control strains against tobramycin, that has a defined MIC spectrum, in accordance with NCCLS guidelines.”

[14] = biological target: T1, P. aeruginosa LpxC (Pseudomonas aeruginosa, UniProt P47205); assay: P. aeruginosa LpxC Inhibition Assay; format: biochemical
T1 sequence (P47205 1-303): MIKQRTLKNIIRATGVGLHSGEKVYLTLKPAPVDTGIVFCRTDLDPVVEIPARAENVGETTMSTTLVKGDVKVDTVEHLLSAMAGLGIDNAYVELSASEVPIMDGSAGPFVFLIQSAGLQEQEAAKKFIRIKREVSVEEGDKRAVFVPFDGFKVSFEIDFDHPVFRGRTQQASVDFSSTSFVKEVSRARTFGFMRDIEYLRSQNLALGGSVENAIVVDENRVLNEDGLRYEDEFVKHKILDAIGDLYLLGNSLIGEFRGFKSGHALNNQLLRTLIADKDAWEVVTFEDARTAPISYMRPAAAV
Procedure: The assay followed the general method of Hyland et al (Journal of Bacteriology 1997 179, 2029-2037: Cloning, expression and purification of UDP-3-O-acyl-GlcNAc deacetylase from Pseudomonas aeruginosa: a metalloamidase of the lipid A biosynthesis pathway) and the radiolabeling procedure is according to Kline et al. supra. Briefly, samples were incubated with 2 nM P. aeruginosa LpxC and 150 nM [3H-Ac]-UDP-3-OR-3-hydroxydecanoyl)-GlcNAc in a total volume of 50 uL for 90 min at room temperature. Reactions were carried out in 96-well polypropylene plates in 50 mM sodium phosphate buffer, pH 7.5, containing 1 mg/mL BSA. Reactions were stopped by the addition of 180 uL of a 3% suspension of activated charcoal powder in 100 mM sodium acetate, pH 7.5. Supernatants were clarified by centrifugation. A portion of the clarified supernatant, containing the enzymatically released [3H]-acetate, was transferred to opaque white 96-well plates containing scintillation fluid. The radioactivity was measured in a Perkin-Elmer/Wallac Trilux Microbeta counter.

[15] = system: Escherichia coli; assay: MIC vs enteric organisms: Escherichia coli clinical isolates; format: cell-based; settings: Escherichia coli, MIC key class, read-out: MIC
Procedure: as §2
as §1, with “MIC.” for “MIC. Performance of the assay was monitored by the use of laboratory quality-control strains against tobramycin, that has a defined MIC spectrum, in accordance with NCCLS guidelines.”

SMILES	MIC ([1]; P. aer 12307)	MIC ([1]; P. aer 27853)	MIC ([1]; P. aer psa-6b)	MIC ([1]; PAO1, P. aer. PAO1)	MIC [2]	MIC [3]	MIC [4]	MIC [5]	MIC [6]	MIC [7]	MIC [8]	MIC [9]	MIC [10]	MIC [11]	MIC [12]	MIC [13]	IC50 [14]	MIC ([15]; E. coli 1619)	MIC ([15]; E. coli 2788)	IC50 ([14]; 2 nM P. aeruginosa LpxC, 90 min, room temperature, read-out: IC50 (nM), Enzyme inhibitory activity)
C[C@@H](O)[C@H](NC(=O)c1ccc(C#Cc2ccccc2)cc1)C(=O)NO [Example 12, N-(1-(N-hydroxycarbamoyl)(1S,2R)-2-hydroxypropyl)[4-(2-phenylethynyl)phenyl]carboxamide]	< 6.25 µg/mL	< 6.25 µg/mL	< 6.25 µg/mL	< 6.25 µg/mL	< 6.25 µg/mL	< 6.25 µg/mL	> 50 µg/mL	< 6.25 µg/mL	< 6.25 µg/mL	< 6.25 µg/mL	< 6.25 µg/mL	< 6.25 µg/mL	< 6.25 µg/mL	< 6.25 µg/mL	6.25 to 50 µg/mL (≈ 18.5 to 148 µM)	6.25 to 50 µg/mL (≈ 18.5 to 148 µM)	< 100 nM	< 6.25 µg/mL	< 6.25 µg/mL	
C[C@@H](N)[C@H](NC(=O)c1ccc(C#Cc2ccccc2)cc1)C(=O)NO [Example 13]		< 6.25 µg/mL	< 6.25 µg/mL	< 6.25 µg/mL	< 6.25 µg/mL	< 6.25 µg/mL	> 50 µg/mL	< 6.25 µg/mL	> 50 µg/mL	< 6.25 µg/mL	< 6.25 µg/mL	< 6.25 µg/mL	< 6.25 µg/mL	< 6.25 µg/mL	< 6.25 µg/mL	< 6.25 µg/mL	< 100 nM	< 6.25 µg/mL	< 6.25 µg/mL	
C[C@@H](O)[C@H](NC(=O)c1ccc(C#CC#Cc2ccccc2)cc1)C(=O)NO [Example 19, N-(1-(N-hydroxycarbamoyl)(1S,2R)-2-hydroxypropyl)[4-(4-phenylbuta-1,3-diynyl)phenyl]carboxamide]	< 6.25 µg/mL	< 6.25 µg/mL	< 6.25 µg/mL	< 6.25 µg/mL	< 6.25 µg/mL	< 6.25 µg/mL	< 6.25 µg/mL	< 6.25 µg/mL	< 6.25 µg/mL	< 6.25 µg/mL	< 6.25 µg/mL	< 6.25 µg/mL	6.25 to 50 µg/mL (≈ 17.2 to 138 µM)	< 6.25 µg/mL	< 6.25 µg/mL	6.25 to 50 µg/mL (≈ 17.2 to 138 µM)	< 100 nM	< 6.25 µg/mL	< 6.25 µg/mL	
CCc1ccc(-c2ccc(C(=O)N[C@@H](CN)C(=O)NO)cc2)cc1 [Example 280, N-[(1S)-1-(aminomethyl)-2-(hydroxyamino)-2-oxoethyl]-4′-ethyl-1,1-biphenyl-4-carboxamide]	< 6.25 µg/mL	< 6.25 µg/mL	< 6.25 µg/mL	< 6.25 µg/mL	6.25 to 50 µg/mL (≈ 19.1 to 153 µM)	6.25 to 50 µg/mL (≈ 19.1 to 153 µM)	> 50 µg/mL	> 50 µg/mL	> 50 µg/mL	6.25 to 50 µg/mL (≈ 19.1 to 153 µM)	< 6.25 µg/mL	< 6.25 µg/mL	6.25 to 50 µg/mL (≈ 19.1 to 153 µM)	< 6.25 µg/mL	6.25 to 50 µg/mL (≈ 19.1 to 153 µM)	6.25 to 50 µg/mL (≈ 19.1 to 153 µM)		< 6.25 µg/mL	< 6.25 µg/mL	< 100 nM
